Experimental data: PMC11062899, “De novo development of small cyclic peptides that are orally bioavailable” (Nature Chemical Biology, 2023)
Where “and” joins values, the source holds several entries; their conditions need not be identical. Equal values may be shown once. Read-outs that look alike come from different tables or passages of the source.

How the values were obtained:
rat α-thrombin = molecular target: T1, rat α-thrombin (Rattus norvegicus, UniProt P18292); assay: Protease inhibition, Ki for rat α-thrombin (fluorogenic substrate Z-Gly-Gly-Arg-AMC); format: biochemical; settings: for Rat alpha thrombin inhibition, slope normalized to DMSO: replicates R1-R3
T1 construct: rat α-thrombin (Molecular Innovations) were used at final concentrations of 2 nM and 3 nM; purchased Molecular Innovations
Procedure: (§1) The inhibition constants (Ki) of cyclic peptides were calculated by measuring thrombin inhibition in the presence of different concentrations of the cyclic peptides. […] Human α-thrombin (Molecular Innovations) and rat α-thrombin (Molecular Innovations) were used at final concentrations of 2 nM and 3 nM, respectively, and fluorogenic substrate (Z-Gly-Gly-Arg-AMC, Bachem) was used at a concentration of 50 μM. Enzymatic activity was determined by measuring fluorescent gain on a Tecan Infinite M200 Pro microplate reader (excitation: 360 nm, emission: 465 nm) or a PHERAstar FSX microplate reader (excitation: 380 nm, emission: 440 nm) for 30 min at 25 °C with a fluorescent readout every 3 min. The two instruments were controlled with Tecan Infinite M200 Pro instrument software (iControl, version 1.12) and PHERAstar FSX software (version 5.70, edition 8), respectively. Protease inhibition was calculated by comparing the enzymatic activity to a control without cyclic peptide.
(§2) Half maximal inhibitory concentration (IC50) values were determined using a four-parameter logistic regression model in GraphPad Prism 9 to fit sigmoidal curves to the acquired data points according to equation (2) below.2 y=b+a−b/1+10^(logIC50−x)p where a and b represent the measured inhibition maximum and minimum, respectively; x is the logarithm of peptide concentration; y is the thrombin activity compared to a control without the cyclic peptide; and p is the Hill coefficient.
(§3) Ki values were calculated using the IC50 and the Cheng–Prusoff equation (equation (3)).3 Ki=IC50/1+S0/Km where Km is the Michaelis–Menten constant of the enzyme for the substrate used in the assay, and [S]0 is the initial substrate concentration.

human α-thrombin = human α-thrombin (Homo sapiens, UniProt P00734); assay: Protease inhibition, Ki for human α-thrombin (fluorogenic substrate Z-Gly-Gly-Arg-AMC); format: biochemical; settings: for Human alpha thrombin inhibition, slope normalized to DMSO: replicates R1-R3
Procedure: as §1, §2, §3

[1] = Passive artificial membrane permeability (PAMPA);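 for Permeability% Average: top well sample relative to theoretical equilibrium sample by TIC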
[2] = peptide concentration 1.00E+02 uM
[3] = peptide concentration 1.19E-05 uM
[4] = peptide concentration 1.22E-02 uM
[5] = peptide concentration 1.25E+01 uM
[6] = peptide concentration 1.53E-03 uM
[7] = peptide concentration 1.56E+00 uM
[8] = peptide concentration 1.91E-04 uM
[9] = peptide concentration 1.95E-01 uM
[10] = peptide concentration 2.38E-05 uM
[11] = peptide concentration 2.44E-02 uM
[12] = peptide concentration 2.50E+01 uM
[13] = peptide concentration 3.05E-03 uM
[14] = peptide concentration 3.12E+00 uM
[15] = peptide concentration 3.81E-04 uM
[16] = peptide concentration 3.91E-01 uM
[17] = peptide concentration 4.77E-05 uM
[18] = peptide concentration 4.88E-02 uM
[19] = peptide concentration 5.00E+01 uM
[20] = peptide concentration 6.10E-03 uM
[21] = peptide concentration 6.25E+00 uM
[22] = peptide concentration 7.63E-04 uM
[23] = peptide concentration 7.81E-01 uM
[24] = peptide concentration 9.54E-05 uM
[25] = peptide concentration 9.77E-02 uM

Ki (rat α-thrombin; average of R1-R3, read-out: Rat alpha thrombin inhibition, Ki Average): 252 nM | Rat alpha thrombin inhibition, slope normalized to DMSO (rat α-thrombin; [2]): 7.5 and 5.2 and 7.4 | Rat alpha thrombin inhibition, slope normalized to DMSO (rat α-thrombin; [3]): 101.0 and 99.4 and 101.8 | Rat alpha thrombin inhibition, slope normalized to DMSO (rat α-thrombin; [4]): 100.6 and 96.9 and 105.9 | Rat alpha thrombin inhibition, slope normalized to DMSO (rat α-thrombin; [5]): 11.6 and 13.6 and 8.8 | Rat alpha thrombin inhibition, slope normalized to DMSO (rat α-thrombin; [6]): 110.9 and 102.8 and 91.9 | Rat alpha thrombin inhibition, slope normalized to DMSO (rat α-thrombin; [7]): 29.5 and 31.9 and 33.8 | Rat alpha thrombin inhibition, slope normalized to DMSO (rat α-thrombin; [8]): 101.7 (2×) and 104.1 | Rat alpha thrombin inhibition, slope normalized to DMSO (rat α-thrombin; [9]): 57.9 and 68.0 and 74.9 | Rat alpha thrombin inhibition, slope normalized to DMSO (rat α-thrombin; [10]): 95.3 and 93.1 and 98.0 | Rat alpha thrombin inhibition, slope normalized to DMSO (rat α-thrombin; [11]): 87.6 and 90.4 and 103.1 | Rat alpha thrombin inhibition, slope normalized to DMSO (rat α-thrombin; [12]): 10.8 and 13.8 and 2.6 | Rat alpha thrombin inhibition, slope normalized to DMSO (rat α-thrombin; [13]): 84.4 and 99.6 and 89.5 | Rat alpha thrombin inhibition, slope normalized to DMSO (rat α-thrombin; [14]): 19.8 and 21.4 and 23.1 | Rat alpha thrombin inhibition, slope normalized to DMSO (rat α-thrombin; [15]): 100.0 and 99.2 and 101.2 | Rat alpha thrombin inhibition, slope normalized to DMSO (rat α-thrombin; [16]): 59.7 and 45.3 and 63.3 | Rat alpha thrombin inhibition, slope normalized to DMSO (rat α-thrombin; [17]): 96.9 and 93.8 and 94.4 | Rat alpha thrombin inhibition, slope normalized to DMSO (rat α-thrombin; [18]): 85.6 and 100.2 and 83.3 | Rat alpha thrombin inhibition, slope normalized to DMSO (rat α-thrombin; [19]): 7.6 and 10.7 and 9.3 | Rat alpha thrombin inhibition, slope normalized to DMSO (rat α-thrombin; [20]): 100.9 and 96.3 and 102.1 | Rat alpha thrombin inhibition, slope normalized to DMSO (rat α-thrombin; [21]): 12.6 and 18.3 and 16.4 | Rat alpha thrombin inhibition, slope normalized to DMSO (rat α-thrombin; [22]): 96.9 and 104.7 and 92.6 | Rat alpha thrombin inhibition, slope normalized to DMSO (rat α-thrombin; [23]): 48.7 and 32.2 and 42.2 | Rat alpha thrombin inhibition, slope normalized to DMSO (rat α-thrombin; [24]): 95.8 and 96.9 and 102.0 | Rat alpha thrombin inhibition, slope normalized to DMSO (rat α-thrombin; [25]): 78.0 and 74.1 and 90.2 | IC50 (rat α-thrombin; single replicates R1-R3, read-out: Rat alpha thrombin inhibition, IC50): 451 nM and 308 nM and 605 nM | Ki (human α-thrombin; average of R1-R3, read-out: Human alpha thrombin inhibition, Ki Average): 1160 nM | Human alpha thrombin inhibition, slope normalized to DMSO (human α-thrombin; [2]): 21.2 and 22.5 and 13.5 | Human alpha thrombin inhibition, slope normalized to DMSO (human α-thrombin; [3]): 107.9 and 108.1 and 100.7 | Human alpha thrombin inhibition, slope normalized to DMSO (human α-thrombin; [4]): 45.0 and 106.0 and 79.1 | Human alpha thrombin inhibition, slope normalized to DMSO (human α-thrombin; [5]): 20.5 and 29.2 and 28.2 | Human alpha thrombin inhibition, slope normalized to DMSO (human α-thrombin; [6]): 70.8 and 98.2 and 101.6 | Human alpha thrombin inhibition, slope normalized to DMSO (human α-thrombin; [7]): 57.8 and 72.9 and 62.5 | Human alpha thrombin inhibition, slope normalized to DMSO (human α-thrombin; [8]): 100.2 and 106.6 and 100.4 | Human alpha thrombin inhibition, slope normalized to DMSO (human α-thrombin; [9]): 100.6 and 90.9 and 89.3 | Human alpha thrombin inhibition, slope normalized to DMSO (human α-thrombin; [10]): 109.7 and 103.6 and 106.2 | Human alpha thrombin inhibition, slope normalized to DMSO (human α-thrombin; [11]): 86.3 and 104.2 and 79.8 | Human alpha thrombin inhibition, slope normalized to DMSO (human α-thrombin; [12]): 13.8 and 27.1 and 20.7 | Human alpha thrombin inhibition, slope normalized to DMSO (human α-thrombin; [13]): 101.3 and 97.0 and 101.4 | Human alpha thrombin inhibition, slope normalized to DMSO (human α-thrombin; [14]): 19.7 and 40.6 and 23.4 | Human alpha thrombin inhibition, slope normalized to DMSO (human α-thrombin; [15]): 71.5 and 115.8 and 100.2 | Human alpha thrombin inhibition, slope normalized to DMSO (human α-thrombin; [16]): 64.9 and 85.6 and 86.8 | Human alpha thrombin inhibition, slope normalized to DMSO (human α-thrombin; [17]): 107.4 and 99.0 and 99.6 | Human alpha thrombin inhibition, slope normalized to DMSO (human α-thrombin; [18]): 103.0 and 102.1 and 95.7 | Human alpha thrombin inhibition, slope normalized to DMSO (human α-thrombin; [19]): 20.6 and 21.0 and 15.4 | Human alpha thrombin inhibition, slope normalized to DMSO (human α-thrombin; [20]): 86.7 and 105.1 and 95.4 | Human alpha thrombin inhibition, slope normalized to DMSO (human α-thrombin; [21]): 41.3 and 33.5 and 28.3 | Human alpha thrombin inhibition, slope normalized to DMSO (human α-thrombin; [22]): 100.0 and 108.8 and 108.6 | Human alpha thrombin inhibition, slope normalized to DMSO (human α-thrombin; [23]): 74.4 and 82.4 and 81.1 | Human alpha thrombin inhibition, slope normalized to DMSO (human α-thrombin; [24]): 104.7 and 102.3 and 88.7 | Human alpha thrombin inhibition, slope normalized to DMSO (human α-thrombin; [25]): 98.8 and 95.6 and 95.8 | IC50 (human α-thrombin; single replicates R1-R3, read-out: Human alpha thrombin inhibition, IC50): 1300 nM and 1670 nM and 1530 nM | PAMPA permeability: % permeability ([1]; 50 μM, 12–18 h, acceptor concentration relative to equilibrium): 48 ± 19% | Permeability% (single replicates R1–R3) ([1]; 50 μM, 13 h (Fig. 5d)): 26.09% and 53.35% and 63.35% | Permeability% Average ([1]; 50 μM, 13 h (Fig. 5d)): 47.6% | Papp at 50 μM ([1]; PAMPA, pH 7.4): 5.62 ×10⁻⁶ cm/s
Structure (SMILES): O=C1C[C@H]2CCCN2C(=O)[C@H](Cc2ccccc2)NC(=O)[C@@H](NC(=O)c2ccc(Cl)s2)CCCC=CCCCCN1 [compound 44]
Ki (rat α-thrombin; single replicates R1-R3, read-out: Rat alpha thrombin inhibition, Ki): 250 nM (2×) and 171 nM (2×) and 335 nM (2×) | Ki (human α-thrombin; single replicates R1-R3, read-out: Human alpha thrombin inhibition, Ki): 1 µM (2×) and 1.29 µM (2×) and 1.18 µM (2×)
